Values quoted from earlier work as cited in patent US20250009900A1, “OXAZAPHOSPHORINE ANTIBODY DRUG CONJUGATES AND METHODS OF USE” (LA Life Products, LLC, priority 2023, published 2025).

Conditions: combination with ipilimumab (anti-CTLA-4), in the clinic; cited from earlier work

Cn1c(COP(=O)(NCCBr)NCCBr)cnc1[N+](=O)[O-] [evofosfamide]
good clinical activity (patients): 15 of 22
